Assay results from patent US20240342186A1, “PYRIDINE DERIVATIVES WITH N-LINKED CYCLIC SUBSTITUENTS AS cGAS INHIBITORS” (Boehringer Ingelheim International GmbH, priority 2021, published 2024).
Where two headings read alike, the source gives them in different places.

How the values were obtained:
cGAS = cGAS (Homo sapiens (Human), UniProt Q8N884); assay: Human cGAS enzyme assay (hcGAS IC50, in vitro), cGAMP formation by RapidFire MS; type: biochemical;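 further: enzyme activated by 45 bp dsDNA with GTP and ATP (30 µM each), 60 min compound pre-incubation then 90 min reaction, cGAMP relative to cyclic-di-GMP internal standard, 8-point dilutions up to 10 µM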
cGAS, sequence (Q8N884 whole entry): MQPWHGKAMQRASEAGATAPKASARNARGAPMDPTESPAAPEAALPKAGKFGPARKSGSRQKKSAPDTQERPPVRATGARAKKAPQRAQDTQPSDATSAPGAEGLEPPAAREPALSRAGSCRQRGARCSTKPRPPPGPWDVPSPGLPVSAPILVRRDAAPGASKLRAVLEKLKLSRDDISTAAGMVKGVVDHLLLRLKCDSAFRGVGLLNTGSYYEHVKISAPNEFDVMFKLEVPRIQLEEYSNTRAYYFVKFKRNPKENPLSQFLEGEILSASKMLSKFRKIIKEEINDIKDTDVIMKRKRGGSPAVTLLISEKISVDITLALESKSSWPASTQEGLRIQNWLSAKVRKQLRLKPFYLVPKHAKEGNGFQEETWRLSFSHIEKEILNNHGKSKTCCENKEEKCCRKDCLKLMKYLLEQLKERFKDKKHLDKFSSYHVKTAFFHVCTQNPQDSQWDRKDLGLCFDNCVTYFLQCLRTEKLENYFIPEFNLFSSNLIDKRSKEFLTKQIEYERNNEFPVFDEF

[1] = tested on: cellular cGAS activity in baculovirus-stimulated THP1-Dual cells (IRF dependent Lucia luciferase reporter); assay: Human cGAS cell assay: inhibition of IFN induction in virus-stimulated THP1 cells (THP1(vir) IC50); type: cell-based; settings: Homo sapiens, THP1-Dual
Source text: (§1) 6.2 Method: Human cGAS Cell Assay and cGAMP Stimulated Counter Cell Assay (THP1(vir) IC50 and THP1(cGAMP) IC50)
(§2) THP1-Dual™ cells (InvivoGen #thpd-nfis) expressing IRF dependent Lucia luciferase reporter were used as basis for both assays. For the detection of cellular cGAS activity cells were stimulated by a baculovirus (pFastbac-1, Invitrogen, no coding insert) infection that delivers the cGAS enzyme stimulating double-stranded DNA (measurement of THP1(vir) IC50).
(§3) For the counter assay, cells were stimulated by cGAMP (SigmaAldrich #SML1232) to activate the identical pathway independent and directly downstream of cGAS (measurement of THP1(cGAMP) IC50). Pathway activity was monitored by measuring the Lucia luciferase activity induced by either DNA stimulated cGAS enzyme activity (measurement of THP1(vir) IC50) or by cGAMP directly (measurement of THP1(cGAMP) IC50, counter assay).
(§4) Compounds were delivered in 10 mM DMSO solution, serially diluted and transferred to the 384 well assay plate (Greiner #781201) using an Echo acoustic dispenser. Typically, 8 concentrations were used with the highest concentration at 10 μM in the final assay volume followed by ˜1:5 dilution steps. DMSO concentration was set to 1% in the final assay volume. The 384 well assay plate contained 21 test compounds (column 1-22), and DMSO in column 23 and 24.
(§5) Cells, cultivated according to manufacturer conditions, were harvested by centrifugation at 300 g/10 min and were then resuspended and diluted to 1.66E5 cells/ml in fresh cell culture medium (RPMI 1640 (Gibco #A10491-01), 10% FCS (Gibco #10500), 1× GlutaMax (Gibco #35050-061), 1× Pen/Strep solution (Gibco #15140-122), 100 μg/ml Normocin (InvivoGen #ant-nr), 100 μg/ml Zeocin (InvivoGen #ant-zn), 10 μg/ml Blasticidin S (Life Technologies #A11139-03)). The baculovirus solution was then added 1:200 (have varied according to virus batch) to the cells (measurement of THP1(vir) IC50).
(§6) 30 μL of the cell/virus-mix were added to each well of the compound plate from column 1-23 via MultiDrop Combi dispenser (5000 cells/well). In column 24, 30 μl/5000 cells/well without virus were added as a low control.
(§7) The plates were then incubated for 18 h at 37° C. in a humidified incubator.
(§8) Following that, 15 μl of QuantiLuc detection reagent (InvivoGen #rep-qlcg5) were added to each well using a MultiDrop Combi. Measurement was done immediately after the addition using an EnVision reader (US-luminescence read-mode).
(§9) For data evaluation and calculation, the measurement of the low control was set as 0% control and the measurement of the high control was set as 100% control. The IC50 values were calculated using the standard 4 parameter logistic regression formula. Calculation: [y=(a−d)/(1+(x/c)^b)+d], a=low value, d=high value; x=conc M; c=IC50 M; b=slope

[2] = tested on: cGAMP-stimulated THP1-Dual cells (pathway directly downstream of cGAS); assay: cGAMP stimulated counter cell assay: inhibition of IFN induction in cGAMP-stimulated THP1 cells (THP1(cGAMP) IC50); type: cell-based, human; settings: for IC50: Homo sapiens, THP1-Dual, read-out: THP1(cGAMP) IC50 (converted); for Ratio THP1(cGAMP) IC50 / THP1(vir) IC50: selectivity for cGAS inhibition
Source text: as §1, §2, §3, §4, §5, §6, §7, §8, §9

[3] = tested on: cellular cGAS activity in dsDNA-stimulated human whole blood; assay: Human whole blood assay (hWB IC50): IFNα2α production after dsDNA transfection; type: cell-based
Procedure: 6.3 Method: Human Whole Blood Assay (Human WB IC50)
For the detection of cellular cGAS activity human whole blood was stimulated by transfection with double stranded DNA. Pathway activity was monitored by measuring the IFNα2α production.
Compounds were delivered as 10 mM DMSO solution and serially diluted and transferred to the 96-well cell culture plate (Corning #3595), prefilled with 20 μl OptiMEM (Gibco, #11058-021) in each well, using an Echo acoustic dispenser. Typically, 8 concentrations were used with the highest concentration at 10 µM in the final assay volume followed by ˜1:5 dilution steps. DMSO concentration was set to 0.1% in the final assay volume. The 96-well assay plate contained 10 test compounds, and DMSO in control wells.
Collection of human whole blood from 3 or more healthy donors (male or female, no medication for 7 days except contraceptive and thyroxine) as Na-Citrate blood (e.g. 3.8% in Monovettes from Sarstedt) was conducted in parallel. Whole blood was kept at room temperature for a maximum of 3 hours after collection until use in the assay.
160 μl of the whole blood samples was transferred to each well of the 96-well assay plates filled with compound/OptiMEM. All assay plates were prepared as duplicates with blood from different donors. Blood plates were kept at room temperature for 60 minutes and continuous shaking with 450 rpm, covered with the lid, but not sealed.
20 μl OptiMEM and 9.6:1 Fugene was added to all low control wells.
After covering assay plates with aera seals and the lid, blood plates were kept at room temperature for 30 minutes and continuous shaking with 450 rpm, followed by an overnight incubation of 22 h at 37° C. in the incubator, without shaking.
For the detection of IFNα-2α in human plasma, the biotinylated capture antibody (Antibody set IFNA2, Meso Scale Diagnostics #B21VH-3, including coating and capture antibody) was diluted 1:17.5 in Diluent 100 (Meso Scale Diagnostics #R^50AA-4), according to the manufacturer's directions. U-Plex MSD GOLD 96-well Small Spot Strepavidin SECTOR Plates (Meso Scale Diagnostics #L45SA-5) were coated with 25 μl diluted capture antibody. Coated plates were incubated for 60 min at room temperature under continuous shaking at 700 rpm. MSD IFNα-2α plates were washed three times with 150 μl wash buffer (1x HBSS, 0.05% Tween).
After blocking the plates with 100 μl block solution/well (1x HBSS with 0.2% Tween, 2% BSA) for 60 min at room temperature and continuous shaking at 700 rpm, plates were emptied as dry as possible by dumping just before continuing with the human plasma.
Whole Blood assay plates were centrifuged at 1600 rpm for 10 minutes. 25 μl of supernatant was transferred with a pipetting robot from each whole blood plate to the corresponding IFNα-2α plate. Plates were sealed with microplate seals and kept at room temperature again under continuous shaking at 700 rpm for two hours.
Next MSD IFNα-2α plates were washed three times with 150 μl wash buffer (1×HBSS, 0.05% Tween), before adding 25 μl MSD SULFO-TAG IFNα-2α Antibody solution (1:100 diluted in Diluent 3 (Meso Scale Diagnostics #R50AP-2) to each well of the plates.
Afterwards plates were sealed with microplate seals and kept at room temperature again under continuous shaking at 700 rpm for two hours. Finally, MSD IFNα-2α plates were washed three times with 150 μl wash buffer (1×HBSS, 0.05% Tween). 150 μl 2× Read buffer was added to each well and plates were immediately measured with the MSD Sector S600 Reader using the vendor barcode.
For data evaluation and calculation, % control calculation of each well was based on the mean of high (DNA stimulated control) and mean of low (unstimulated control) controls by using the following formula:
[counts(sample)−counts(low))/(counts(high)−counts(low))]*100
The IC50 values were calculated using the standard 4 parameter logistic regression formula. Calculation: [y=(a−d)/(1+(x/c)^b)+d], a=low value, d=high value; x=conc M; c=IC50 M; b=slope

[4] = biochemical (in vitro) cGAS inhibition
[5] = inhibition of IFN induction in virus-stimulated THP1 cells, read-out: THP1(vir) IC50
[6] = inhibition of IFN induction in cGAMP-stimulated THP1 cells
[7] = inhibition of IFN induction in dsDNA-stimulated human whole blood

IC50 (cGAS; [4]) [nM]	IC50 [1, 5] [nM]	IC50 [3, 7] [nM]	SMILES	IC50 [2, 6] [nM]	Ratio THP1(cGAMP) IC50 / THP1(vir) IC50 [2]	IC50 (cGAS; biochemical (in vitro), human cGAS, 45 bp dsDNA, GTP/ATP) [nM]	IC50 ([1]; read-out: THP1(vir) IC50, virus-stimulated THP1 cells, IFN induction) [nM]	IC50 ([2]; cGAMP-stimulated THP1 cells, counter assay) [nM]	IC50 ([3]; dsDNA-stimulated human whole blood, IFN induction) [nM]
9	6	19	CNc1cccc(-c2cnc(O[C@H]3C[C@@H](C(=O)O)N(c4nc(C(F)(F)F)nc5c4oc4ccccc45)C3)c(N3CCOC4(COC4)[C@@H]3C)c2)c1 [Example 3.12]	11100	1930	–	–	–	–
4	85	46	C[C@@H]1N(c2cc(Cl)cnc2O[C@H]2C[C@@H](C(=O)O)N(c3nc(C(F)F)nc4c3oc3ccccc34)C2)CCCC12COC2 [Example 1.21]	14800	175	–	–	–	–
3	5	24	C#Cc1cnc(O[C@H]2C[C@@H](C(=O)O)N(c3nc(CCl)nc4c3oc3ccccc34)C2)c(N2CCOC3(COC3)[C@@H]2C)c1 [Example 2.10]	2750	533	–	–	–	–
4	239	226	C[C@H]1CN(C#N)CCN1c1cc(Br)cnc1O[C@H]1C[C@@H](C(=O)O)N(c2nc(C(F)F)nc3c2oc2ccccc23)C1 [Example 1.18]	6510	27	–	–	–	–
75	332	702	C#Cc1cnc(O[C@H]2C[C@@H](C(=O)O)N(c3nc(C(C)(F)F)nc4c3oc3ccccc34)C2)c(N2CCOC3(COC3)[C@H]2C)c1 [Example 1.15]	26200	79	–	–	–	–
–	–	–	C#Cc1cnc(O[C@H]2C[C@@H](C(=O)OC)N(c3nc(C(F)(F)F)nc4c3oc3ccccc34)C2)c(N2CCOC3(COC3)[C@@H]2C)c1 [Example P03]	–	–	9620	188	22800	1090
10	57	22	CC(=O)Nc1cc(-c2cnc(O[C@H]3C[C@@H](C(=O)O)N(c4nc(C(F)F)nc5c4oc4ccccc45)C3)c(N3CCOC4(COC4)[C@@H]3C)c2)ccn1 [Example 3.15]	19900	348	–	–	–	–
11	3	28	C[C@@H]1N(c2cc(-c3cnn(C(F)F)c3)cnc2O[C@H]2C[C@@H](C(=O)O)N(c3nc(C(F)(F)F)nc4c3oc3ccccc34)C2)CCOC12COC2 [Example 3.31]	10900	4120	–	–	–	–
4	63	52	C#Cc1cnc(O[C@H]2C[C@@H](C(=O)O)N(c3nc(C)nc4c3oc3cc(C(F)F)ccc34)C2)c(N2CCOC3(COC3)[C@@H]2C)c1 [Example 2.06]	11900	189	–	–	–	–
4	40	102	C[C@@H]1N(c2cc(Cl)cnc2O[C@H]2C[C@@H](C(=O)O)N(c3nc(C(F)(F)F)nc4c3oc3ccccc34)C2)CCOC12COC2 [Example 1.13]	16400	413	–	–	–	–
8	5	10	CC(=O)Nc1ccc(-c2cnc(O[C@H]3C[C@@H](C(=O)O)N(c4nc(C(F)(F)F)nc5c4oc4ccccc45)C3)c(N3CCOC4(COC4)[C@@H]3C)c2)cn1 [Example 3.10]	7910	1713	–	–	–	–
6	< 5	8	CC#Cc1cnc(O[C@H]2C[C@@H](C(=O)O)N(c3nc(C(F)F)nc4c3oc3ccccc34)C2)c(N2CCOC3(COC3)[C@@H]2C)c1 [Example 6.02]	> 16000	>3000	–	–	–	–
17	154	305	C#Cc1cnc(O[C@H]2C[C@@H](C(=O)O)N(c3nc(C(F)(F)C(F)(F)F)nc4c3oc3ccccc34)C2)c(N2CCOC3(COC3)[C@@H]2C)c1 [Example 1.17]	> 16600	>108	–	–	–	–
4	5	11	C[C@@H]1N(c2cc(-c3cccc(CO)c3)cnc2O[C@H]2C[C@@H](C(=O)O)N(c3nc(C(F)F)nc4c3oc3ccccc34)C2)CCOC12COC2 [Example 3.11]	5290	1149	–	–	–	–
7	899	2120	C[C@H]1COCCN1c1cc(-c2ccncc2F)cnc1O[C@H]1C[C@@H](C(=O)O)N(c2nc(C(F)(F)F)nc3c2oc2ccccc23)C1 [Example 3.03]	12800	14	–	–	–	–
14	523	1830	COc1cc(-c2cnc(O[C@H]3C[C@@H](C(=O)O)N(c4nc(C(F)(F)F)nc5c4oc4ccccc45)C3)c(N3CCOC[C@@H]3C)c2)ccn1 [Example 3.05]	6710	13	–	–	–	–
